SMILES strings stand for the structures.

One assay deals with GCN2 kinase (Homo sapiens, UniProt Q9P2K8). Nature of the assay: GCN2 enzyme inhibition assay (Transcreener ADP2 fluorescence polarization). Type of assay: biochemical. The note with it: compounds of Formula II; 280 μM ATP, 4 nM GCN2 kinase. An outline of the steps: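 FP detection of ADP (antibody plus Alexa633 tracer) after a 1 h, 25 °C kinase reaction. Enzyme 4 nM, ATP 280 μM, (RS)7 peptide 200 μM, Tris pH 7.5 buffer with MgCl2 and DTT. Percent inhibition fitted by non-linear tight-binding algorithm for IC50 and Ki(app).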
Chain of GCN2 kinase (Q9P2K8 whole entry): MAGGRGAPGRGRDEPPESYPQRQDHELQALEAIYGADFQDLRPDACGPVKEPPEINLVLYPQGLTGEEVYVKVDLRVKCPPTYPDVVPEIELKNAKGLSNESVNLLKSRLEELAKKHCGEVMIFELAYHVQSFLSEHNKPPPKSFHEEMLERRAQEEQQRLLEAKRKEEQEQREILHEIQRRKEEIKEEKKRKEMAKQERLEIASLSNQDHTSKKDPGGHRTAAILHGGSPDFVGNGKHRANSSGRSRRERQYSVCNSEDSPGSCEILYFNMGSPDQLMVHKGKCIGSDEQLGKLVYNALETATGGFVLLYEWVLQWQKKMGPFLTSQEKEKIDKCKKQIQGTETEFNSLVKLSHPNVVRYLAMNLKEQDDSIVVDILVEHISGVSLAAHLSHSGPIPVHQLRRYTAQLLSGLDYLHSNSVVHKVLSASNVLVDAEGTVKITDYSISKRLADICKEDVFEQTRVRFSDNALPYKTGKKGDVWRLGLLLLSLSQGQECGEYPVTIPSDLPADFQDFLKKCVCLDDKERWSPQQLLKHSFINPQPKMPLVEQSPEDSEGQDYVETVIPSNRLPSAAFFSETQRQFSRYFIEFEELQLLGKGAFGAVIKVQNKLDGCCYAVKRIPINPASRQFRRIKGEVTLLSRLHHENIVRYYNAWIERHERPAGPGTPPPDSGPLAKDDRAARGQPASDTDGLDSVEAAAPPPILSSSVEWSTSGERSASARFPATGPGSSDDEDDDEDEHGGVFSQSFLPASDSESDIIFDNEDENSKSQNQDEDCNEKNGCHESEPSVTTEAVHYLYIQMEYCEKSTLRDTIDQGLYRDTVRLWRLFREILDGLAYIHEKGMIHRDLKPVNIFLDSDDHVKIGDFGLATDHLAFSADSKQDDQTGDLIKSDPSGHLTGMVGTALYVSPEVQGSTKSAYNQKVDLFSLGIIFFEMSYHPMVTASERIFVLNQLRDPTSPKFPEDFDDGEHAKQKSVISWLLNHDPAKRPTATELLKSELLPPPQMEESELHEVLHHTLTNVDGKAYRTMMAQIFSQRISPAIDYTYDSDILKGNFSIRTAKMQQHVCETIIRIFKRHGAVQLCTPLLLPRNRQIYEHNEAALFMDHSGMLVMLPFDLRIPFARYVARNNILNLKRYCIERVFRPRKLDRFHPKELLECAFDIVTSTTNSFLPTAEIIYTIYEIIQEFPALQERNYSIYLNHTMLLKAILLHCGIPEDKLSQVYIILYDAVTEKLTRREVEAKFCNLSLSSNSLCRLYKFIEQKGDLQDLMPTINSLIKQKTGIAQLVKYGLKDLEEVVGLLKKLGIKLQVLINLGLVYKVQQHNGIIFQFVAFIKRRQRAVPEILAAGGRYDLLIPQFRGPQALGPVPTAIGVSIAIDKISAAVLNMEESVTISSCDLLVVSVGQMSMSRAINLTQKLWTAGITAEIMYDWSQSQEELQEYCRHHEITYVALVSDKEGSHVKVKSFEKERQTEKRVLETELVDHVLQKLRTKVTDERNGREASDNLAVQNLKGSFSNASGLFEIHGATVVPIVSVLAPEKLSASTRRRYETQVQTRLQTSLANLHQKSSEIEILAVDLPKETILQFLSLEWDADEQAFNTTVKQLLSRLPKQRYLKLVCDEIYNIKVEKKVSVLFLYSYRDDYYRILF

For assay [1], the target named is intracellular GCN2 (phosphorylation of the GCN2 substrate eIF2α) (Homo sapiens, UniProt Q9P2K8). Nature of the assay: GCN2 cellular inhibition assay (AlphaScreen SureFire P-eIF2α Ser51, borrelidin-treated U2OS cells). Type of assay: cell-based. As to conditions: compounds of Formula II; biomarker assay, phosphorylated eIF2α Ser51 in borrelidin-treated U2OS cells. The essentials: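 Borrelidin at 10 μM is added to U2OS cells immediately after compound (4-fold dilution series, 40 μM top final) for 1 h at 37 °C. Phosphorylated eIF2α Ser51 in lysates is quantified by AlphaScreen and expressed as percent inhibition against borrelidin-stimulated controls.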
Chain of intracellular GCN2 (phosphorylation of the GCN2 substrate eIF2α) (Q9P2K8 whole entry): as above

Take `NS(=O)(=O)NCC1CCCN(c2cc(-c3cnc4ccc(C(F)F)nn34)ncn2)C1` (single isomer, unassigned) [II-278]: the Ki on GCN2 kinase is less than 10 nM. The compound further returned an IC50 in assay [1] of less than 500 nM.

Consider `CC1C(CNS(C)(=O)=O)C(F)(F)CCN1c1cc(-c2cnc3ccc(C(F)F)nn23)ncn1` (single isomer, unassigned) [II-302, N-((1-(6-(6-(Difluoromethyl)imidazo[1,2-b]pyridazin-3-yl)pyrimidin-4-yl)-4,4-difluoro-2-methylpiperidin-3-yl)methyl)methanesulfonamide], for which the Ki at GCN2 kinase was in the range of 10 to 1000 nM. Besides, the IC50 in assay [1] is 500 to 5000 nM.

In turn, `CC1C(CNS(C)(=O)=O)C(F)(F)CCN1c1cc(-c2cnc3ccc(C(F)F)nn23)ncn1` (single isomer, unassigned) [II-303, N-((1-(6-(6-(Difluoromethyl)imidazo[1,2-b]pyridazin-3-yl)pyrimidin-4-yl)-4,4-difluoro-2-methylpiperidin-3-yl)methyl)methanesulfonamide] showed a Ki at GCN2 kinase of 10 to 1000 nM. In addition, in assay [1], the IC50 was in the range of 500 to 5000 nM.

`CC1CC(F)(F)C(CNS(C)(=O)=O)CN1c1cc(-c2cnc3ccc(C(F)F)nn23)ncn1` (single isomer, unassigned) [II-304, N-((1-(6-(6-(Difluoromethyl)imidazo[1,2-b]pyridazin-3-yl)pyrimidin-4-yl)-4,4-difluoro-6-methylpiperidin-3-yl)methyl)methanesulfonamide] gave a Ki on GCN2 kinase of less than 10 nM. In addition, in assay [1], the IC50 is less than 500 nM.

On to `CC1CC(F)(F)C(CNS(C)(=O)=O)CN1c1cc(-c2cnc3ccc(C(F)F)nn23)ncn1` (single isomer, unassigned) [II-305, N-((1-(6-(6-(Difluoromethyl)imidazo[1,2-b]pyridazin-3-yl)pyrimidin-4-yl)-4,4-difluoro-6-methylpiperidin-3-yl)methyl)methanesulfonamide], for which the Ki on GCN2 kinase is 10 to 1000 nM. The same compound yielded an IC50 in assay [1] of more than 5000 nM.

On to `CC1C[S+]([O-])CCN1c1cc(-c2cnc3ccc(C(F)F)nn23)ncn1` (single isomer, unassigned) [II-355, 4-(6-(6-(Difluoromethyl)imidazo[1,2-b]pyridazin-3-yl)pyrimidin-4-yl)-3-methylthiomorpholine 1-oxide], for which the Ki at GCN2 kinase lay within 10 to 1000 nM. This compound also gave an IC50 in assay [1] of more than 5000 nM.

Consider `CC1C[S+]([O-])CCN1c1cc(-c2cnc3ccc(C(F)F)nn23)ncn1` (single isomer, unassigned) [II-356, 4-(6-(6-(Difluoromethyl)imidazo[1,2-b]pyridazin-3-yl)pyrimidin-4-yl)-3-methylthiomorpholine 1-oxide], for which the Ki at GCN2 kinase was 10 to 1000 nM. In assay [1], this compound gave an IC50 of more than 5000 nM.

`CC1C(CNS(C)(=O)=O)CC(F)(F)CN1c1cc(-c2cnc3ccc(C(F)F)nn23)ncn1` (single isomer, unassigned) [II-360, N-((1-(6-(6-(Difluoromethyl)imidazo[1,2-b]pyridazin-3-yl)pyrimidin-4-yl)-5,5-difluoro-2-methylpiperidin-3-yl)methyl)methanesulfonamide]: at GCN2 kinase, the Ki was in the range of 10 to 1000 nM. In assay [1], this compound registered an IC50 of 500 to 5000 nM.

On GCN2 kinase, `C[C@H]1[C@@H](CNS(C)(=O)=O)CC(F)(F)CN1c1cc(-c2cnc3ccc(C(F)F)nn23)ncn1` (single isomer, unassigned) [II-361] returned a Ki of less than 10 nM. In addition, the IC50 in assay [1] is less than 500 nM.

`CC1C(CNS(C)(=O)=O)N(C)CCN1c1cc(-c2cnc3ccc(C(F)F)nn23)ncn1` (single isomer, unassigned) [II-364, N-((4-(6-(6-(difluoromethyl)imidazo[1,2-b]pyridazin-3-yl)pyrimidin-4-yl)-1,3-dimethylpiperazin-2-yl)methyl)methanesulfonamide] displayed a Ki at GCN2 kinase of less than 10 nM. In assay [1], this compound came in with an IC50 of less than 500 nM.

Regarding `CC1C(CNS(C)(=O)=O)OCCN1c1cc(-c2cnc3ccc(C(F)F)nn23)ncn1` (single isomer, unassigned) [II-372, N-((4-(6-(6-(Difluoromethyl)imidazo[1,2-b]pyridazin-3-yl)pyrimidin-4-yl)-3-methylmorpholin-2-yl)methyl)methanesulfonamide], the Ki at GCN2 kinase was more than 1000 nM. For the same compound, the IC50 in assay [1] is more than 5000 nM.

For `CC1C(NS(C)(=O)=O)CCCN1c1cc(-c2cnc3ccc(C(F)F)nn23)ncn1` (single isomer, unassigned) [II-374, N-[1-[6-[6-(Difluoromethyl)imidazo[1,2-b]pyridazin-3-yl]pyrimidin-4-yl]-2-methyl-3-piperidyl]methanesulfonamide], on GCN2 kinase, the Ki was 10 to 1000 nM. This compound had an IC50 in assay [1] of 500 to 5000 nM.

Compound `CC1C(NS(C)(=O)=O)CCCN1c1cc(-c2cnc3ccc(C(F)F)nn23)ncn1` (single isomer, unassigned) [II-377, N-[1-[6-[6-(Difluoromethyl)imidazo[1,2-b]pyridazin-3-yl]pyrimidin-4-yl]-2-methyl-3-piperidyl]methanesulfonamide] gave a Ki on GCN2 kinase of 10 to 1000 nM. For the same compound, the IC50 in assay [1] is less than 500 nM.

On GCN2 kinase, `CC1(F)CCN(c2cc(-c3cnc4ccc(C(F)F)nn34)ncn2)CC1CNS(C)(=O)=O` (single isomer, unassigned) [II-388, N-((1-(6-(6-(Difluoromethyl)imidazo[1,2-b]pyridazin-3-yl)pyrimidin-4-yl)-4-fluoro-4-methylpiperidin-3-yl)methyl)methanesulfonamide] had a Ki of 10 to 1000 nM. In assay [1], this compound came in with a 50% inhibitory concentration (IC50) of 500 to 5000 nM.

`CC1(F)CCN(c2cc(-c3cnc4ccc(C(F)F)nn34)ncn2)CC1CNS(C)(=O)=O` (single isomer, unassigned) [II-389, N-((1-(6-(6-(Difluoromethyl)imidazo[1,2-b]pyridazin-3-yl)pyrimidin-4-yl)-4-fluoro-4-methylpiperidin-3-yl)methyl)methanesulfonamide] returned a Ki on GCN2 kinase of 10 to 1000 nM. In assay [1], this compound showed an IC50 of 500 to 5000 nM.

For the compound `C[C@H]1[C@@H](CO)CCCN1c1cc(-c2cnc3ccc(C(F)F)nn23)ncn1` (single isomer, unassigned) [II-392], the Ki at GCN2 kinase lay within 10 to 1000 nM. Also, in assay [1], the IC50 lay within 500 to 5000 nM.

Compound `CC1C(CO)CCCN1c1cc(-c2cnc3ccc(C(F)F)nn23)ncn1` (single isomer, unassigned) [II-393, (1-(6-(6-(Difluoromethyl)imidazo[1,2-b]pyridazin-3-yl)pyrimidin-4-yl)-2-methylpiperidin-3-yl)methanol] displayed a Ki on GCN2 kinase of 10 to 1000 nM. Besides, the IC50 in assay [1] is more than 5000 nM.

Take `CS(=O)(=O)N[C@H]1CCCN(c2cc(-c3cnc4ccc(C(F)F)nn34)ncn2)C1` (single isomer, unassigned) [II-404]: the Ki at GCN2 kinase lay within 10 to 1000 nM. In addition, in assay [1], the IC50 fell in the range of 500 to 5000 nM.

Take `CS(=O)(=O)N[C@@H]1CCCN(c2cc(-c3cnc4ccc(C(F)F)nn34)ncn2)C1` (single isomer, unassigned) [II-405]: on GCN2 kinase, the Ki lay within 10 to 1000 nM. Also, in assay [1], the IC50 was 500 to 5000 nM.

`CC1C(CO)OCCN1c1cc(-c2cnc3ccc(C(F)F)nn23)ncn1` (single isomer, unassigned) [II-413, (4-(6-(6-(Difluoromethyl)imidazo[1,2-b]pyridazin-3-yl)pyrimidin-4-yl)-3-methylmorpholin-2-yl)methanol] displayed a Ki at GCN2 kinase of more than 1000 nM. Besides, the IC50 in assay [1] was more than 5000 nM.

`CC1C(CO)OCCN1c1cc(-c2cnc3ccc(C(F)F)nn23)ncn1` (single isomer, unassigned) [II-414, (4-(6-(6-(Difluoromethyl)imidazo[1,2-b]pyridazin-3-yl)pyrimidin-4-yl)-3-methylmorpholin-2-yl)methanol]: the Ki on GCN2 kinase lay within 10 to 1000 nM. In assay [1], the IC50 was more than 5000 nM.

The compound `CCC1C(CNS(C)(=O)=O)CCCN1c1cc(-c2cnc3ccc(C(F)F)nn23)ncn1` (single isomer, unassigned) [II-416] registered a Ki at GCN2 kinase of less than 10 nM. In assay [1], this compound showed an IC50 of less than 500 nM.

In the case of `CCC1C(CNS(C)(=O)=O)CCCN1c1cc(-c2cnc3ccc(C(F)F)nn23)ncn1` (single isomer, unassigned) [II-417], at GCN2 kinase, the Ki was 10 to 1000 nM. Further, in assay [1], the IC50 lay within 500 to 5000 nM.

For the compound `CC1CC(CNS(C)(=O)=O)CN(c2cc(-c3cnc4ccc(C(F)F)nn34)ncn2)C1` (single isomer, unassigned) [II-436, N-((1-(6-(6-(Difluoromethyl)imidazo[1,2-b]pyridazin-3-yl)pyrimidin-4-yl)-5-methylpiperidin-3-yl)methyl)methanesulfonamide], the Ki at GCN2 kinase lay within 10 to 1000 nM. This compound also displayed an IC50 in assay [1] of 500 to 5000 nM.

`CC1CC(CNS(C)(=O)=O)CN(c2cc(-c3cnc4ccc(C(F)F)nn34)ncn2)C1` (single isomer, unassigned) [II-437, N-((1-(6-(6-(Difluoromethyl)imidazo[1,2-b]pyridazin-3-yl)pyrimidin-4-yl)-5-methylpiperidin-3-yl)methyl)methanesulfonamide] registered a Ki at GCN2 kinase of less than 10 nM. Also, the IC50 in assay [1] is less than 500 nM.

On GCN2 kinase, `CC1C(CNS(C)(=O)=O)C(F)(F)C(C)CN1c1cc(-c2cnc3ccc(C(F)F)nn23)ncn1` (single isomer, unassigned) [II-469, N-((1-(6-(6-(Difluoromethyl)imidazo[1,2-b]pyridazin-3-yl)pyrimidin-4-yl)-4,4-difluoro-2,5-dimethylpiperidin-3-yl)methyl)methanesulfonamide] returned a Ki of 10 to 1000 nM. Further, the IC50 in assay [1] is 500 to 5000 nM.

`CC1C(CNS(C)(=O)=O)C(F)(F)C(C)CN1c1cc(-c2cnc3ccc(C(F)F)nn23)ncn1` (single isomer, unassigned) [II-470, N-((1-(6-(6-(Difluoromethyl)imidazo[1,2-b]pyridazin-3-yl)pyrimidin-4-yl)-4,4-difluoro-2,5-dimethylpiperidin-3-yl)methyl)methanesulfonamide] gave a Ki on GCN2 kinase of 10 to 1000 nM. In assay [1], this compound displayed an IC50 of 500 to 5000 nM.

Values taken from patent publication US10988477B2 (Merck Patent GmbH, priority 2018, dated 2021).
